According to US20060074243A1, “Hydroxamic acid and amide compounds and their use as protease inhibitors” (Pharmacia Corporation, priority 2002, published 2006):

Target: T1, Human recombinant MMP-13 (Homo sapiens, UniProt P45452)
T1 construct: made in house; host or cells: baculovirus / insect cells
Test: In vitro MMP inhibition analysis (fluorogenic peptide substrate cleavage), Ki
Format: biochemical
Details: Table 2
Method: Several compounds and salts were analyzed in an in vitro assay to determine their ability to inhibit the MMP cleavage of peptide substrates. Inhibition constant (Ki) were calculated from the assayed compound-MMP interactions.
Human recombinant MMP-1, MMP-2, MMP-9, MMP-13, and MMP-14 were used in this assay. All enzymes were prepared in Assignee's laboratories following usual laboratory procedures. Protocols for the preparation and use of these enzymes are available in the scientific literature. See, e.g., Enzyme Nomenclature (Academic Press, San Diego, Calif., 1992) (and the citations therein). See also, Frije et al., J. Biol. Chem., 26(24), 16766-73 (1994).
The MMP-13 was obtained as a proenzyme from a full-length cDNA clone using baculovirus, as described by V. A. Luckow, “Insect Cell Expression Technology,” Protein Engineering: Principles and Practice, pp. 183-218 (edited by J. L. Cleland et al., Wiley-Liss, Inc., 1996). The expressed proenzyme was first purified over a heparin agarose column, and then over a chelating zinc chloride column. The proenzyme was then activated by APMA for use in the assay. Further details on baculovirus expression systems may be found in, for example, Luckow et al., J. Virol., 67, 4566-79 (1993). See also, O'Reilly et al, Baculovirus Expression Vectors: A Laboratory Manual (W.H. Freeman and Co., New York, N.Y., 1992). See also, King et al., The Baculovirus Expression System: A Laboratory Guide (Chapman & Hall, London, England, 1992).
All MMPs were activated using 4-aminophenylmercuric acetate (“APMA”, Sigma Chemical, St. Louis, Mo.) or trypsin. MMP-9 also was activated using human recombinant MMP-3 (purified in Assignee's laboratory following standard cloning and purification techniques).
The following fluorogenic, methoxycoumarin-containing polypeptide substrate (I) was used in the MMP inhibition assays: MCA-ArgProLeuGlyLeuDpaAlaArgGluArgNH2 (I) “MCA” is 7-methoxycoumarin-4-yl acetyl. Substrate (I) was prepared Assignee's laboratory. In the absence of MMP inhibitory activity, the substrate is cleaved at the Gly-Leu peptide bond. This cleavage separates the highly fluorogenic peptide from the 2,4-dinitrophenyl quencher, thus resulting in increase of fluorescent intensity.
The stock solutions of the assayed compounds and salts were prepared in […] (DMSO). These stock solutions were diluted in Buffer A (100 mM Tris-HCl, 100 mM NaCl, 10 mM CaCl2, 0.05% polyoxyethylene 23 lauryl ether, pH 7.5) to obtain solutions with different compound concentrations, i.e., assay solutions with different concentrations of the assayed […] compound. The experiment controls contained the same amount of Buffer A/DMSO as the assayed sample, but contained none of the tested compound or salt.
The assays from which the Ki determinations were made were performed as follows. The assayed compound samples were incubated in separate wells of untreated white polystyrene plates (Nunc Nalgene International, Rochester, N.Y.), and analyzed on a Tecan SpectraFlour Plus plate reader. The excitation wavelength was 330 nm, and the emission wavelength—420 nm. All samples (assayed compounds and controls) were incubated in separate plate wells at room temperature for 1 hr in the presence of 4 μM of MMP substrate (I). In the absence of MMP inhibitory activity, substrate (I) was cleaved at the Gly-Leu bond resulting in an increase of relative fluorescence. Inhibition was observed as a reduced rate of this increase in relative fluorescence. […] This protocol is a modification of method by Knight et al., FEBS Lett., 296(3), 263-266 (1992). Apparent inhibitory constants were determined by non-linear regression of reaction velocity as a function of inhibitor and enzyme concentration using Morrison's equation, as described by Kuzmic, Anal. Biochem. 286, 45-50 (2000). […]

Compound: O=C(NO)C1(S(=O)(=O)c2ccc(-c3cnc(N4CCCC4)cn3)cc2)CCOCC1 [Example 138]
- Ki: 0.571 nM

Compound: CCCCc1ccc(-c2ccc(S(=O)(=O)C3(C(=O)NO)CCN(CC)CC3)cc2)cn1 [Example 139]
- Ki: 5.22 nM

Compound: CCCCc1ccc(-c2ccc(S(=O)(=O)C3(C(=O)NO)CCN(CC)CC3)cc2)nc1 [Example 140]
- Ki: 0.058 nM

Compound: O=C(NO)C1(S(=O)(=O)c2ccc(-c3ccc(-c4ccncc4)cc3)cc2)CCOCC1 [Example 141]
- Ki: 0.012 nM

Compound: O=C(NO)C1(S(=O)(=O)c2ccc(-c3cnc(CCC(F)(F)C(F)(F)F)nc3)cc2)CCOCC1 [Example 142]
- Ki: 22.5 nM

Compound: O=C(NO)C1(S(=O)(=O)c2ccc(-c3ccc(OCCCC(F)(F)F)cn3)cc2)CCOCC1 [Example 144]
- Ki: 0.007 nM

Compound: O=C(NO)C1(S(=O)(=O)c2ccc(-c3ccc(-c4ccc(OC(F)(F)F)cc4)cn3)cc2)CCN(C2CC2)CC1 [Example 145]
- Ki: 0.26 nM

Compound: CN1CCC(C(=O)NO)(S(=O)(=O)c2ccc(-c3ccc(OC(F)(F)C(F)F)cc3)cc2)CC1 [Example 146]
- Ki: 0.15 nM

Compound: CCN1CCC(C(=O)NO)(S(=O)(=O)c2ccc(-c3noc(-c4ccc(F)cc4)n3)cc2)CC1 [Example 147]
- Ki: 2.59 nM

Compound: CCN1CCC(C(=O)NO)(S(=O)(=O)c2ccc(-c3noc(-c4ccncc4)n3)cc2)CC1 [Example 148]
- Ki: 5.7 nM

Compound: CCN1CCC(C(=O)NO)(S(=O)(=O)c2ccc(-c3noc(-c4ccc(C(F)(F)F)cc4)n3)cc2)CC1 [Example 149]
- Ki: 0.45 nM

Compound: O=C(NO)C1(S(=O)(=O)c2ccc(-c3ccc(-c4ccccc4F)cn3)cc2)CCN(C2CC2)CC1 [Example 150]
- Ki: 0.12 nM

Compound: O=C(NO)C1(S(=O)(=O)c2ccc(-c3ccc(-c4ccccc4)cn3)cc2)CCN(C2CC2)CC1 [Example 151]
- Ki: 0.05 nM

Compound: COCCN1CCC(C(=O)NO)(S(=O)(=O)c2ccc(-c3ccc(-c4ccccc4)cc3)cc2)CC1 [Example 152]
- Ki: 0.05 nM

Compound: O=C(NO)C1(S(=O)(=O)c2ccc(-c3ccc(-c4ccccc4)cc3)cc2)CCN(C2CC2)CC1 [Example 153]
- Ki: 0.15 nM

Compound: O=C(NO)C1(S(=O)(=O)c2ccc(-c3cnc(OCC(F)(F)C(F)(F)F)cn3)cc2)CCOCC1 [Example 154]
- Ki: 0.12 nM

Compound: CCN1CCC(C(=O)NO)(S(=O)(=O)c2ccc(-c3ccc(-c4csc(C)n4)cc3)cc2)CC1 [Example 155]
- Ki: 0.17 nM

Compound: O=C(NO)C1(S(=O)(=O)c2ccc(-c3cnc(OCC(F)(F)C(F)(F)F)cn3)cc2)CCN(C2CC2)CC1 [Example 156]
- Ki: 0.31 nM

Compound: COCCN1CCC(C(=O)NO)(S(=O)(=O)c2ccc(-c3cnc(OCC(F)(F)C(F)(F)F)cn3)cc2)CC1 [Example 157]
- Ki: 0.26 nM

Compound: O=CN1CCC(C(=O)NO)(S(=O)(=O)c2ccc(-c3ccc(CCCC(F)(F)F)cn3)cc2)CC1 [Example 159]
- Ki: 0.02 nM

Compound: O=C(NO)C1(S(=O)(=O)c2ccc(-c3cnc(-c4cccs4)cn3)cc2)CCOCC1 [Example 160]
- Ki: 0.7 nM

Compound: O=C(NO)C1(S(=O)(=O)c2ccc(-c3ccc(CCC(F)(F)F)cc3)cc2)CCOCC1 [Example 161]
- Ki: 0.07 nM

Compound: O=C(NO)C1(S(=O)(=O)c2ccc(-c3cnc(C4CCCC4)cn3)cc2)CCOCC1 [Example 162]
- Ki: 0.95 nM

Compound: CCOc1ccc(-c2ccc(S(=O)(=O)C3(C(=O)NO)CCOCC3)cc2)cc1 [Example 163]
- Ki: 0.011 nM

Compound: COCC#Cc1cnc(-c2ccc(S(=O)(=O)C3(C(=O)NO)CCOCC3)cc2)cn1 [Example 164]
- Ki: 0.09 nM
